Results published in patent US20100197625A1, “SYNTHETIC LIPOPHILIC INOSITOL GLYCANS FOR TREATMENT OF CANCER AND GLUCOSE-METABOLISM DISORDERS” (priority 2006, published 2010).

Experiments:
[1] = system: Panc-1 cells; assay: Cell proliferation / cell death assay, Panc-1; format: cell-based, human; conditions: Panc-1, after 3 days (72 hours)
Procedure: (§1) Human pancreatic cancer cell lines (Panc-1, MiaPaca2, BXPC3, Aspc 1), human hepatoma cell line (HuH7), human gastric cancer cell lines (AGS, MKN45), human colon cancer cell line (CoCM-1), human mammary cancer cell line (MCF-7), human neuroblastoma (SH-SY5Y), human prostate cancer cells (PC3), and murine Ehrlich ascites cancer cells and mouse 3T3-L1 fibroblasts were obtained from American Type Culture Collection (Rockville, Md., USA). The cancer cells were cultured in RPMI 1640 containing 10% fetal calf serum. Cultures were maintained at 37° C. in a humidified atmosphere of 5% CO2.
(§2) Cell proliferation assays were performed with the CellTiter 96 AQueous One Solution Cell Proliferation Assay kit according to the manufacturer's instructions (Promega, Madison, Wis., USA). Briefly, 5×10^3 cells/well in medium were placed onto 96-well plates. IGs were added to cellular cultures at final concentrations of 0, 1, 10, and 100 μM. […] of CellTiter 96 AQueous One Solution Reagent, which contains a tetrazolium compound, 3-(4,5-dimethylthiazol-2-yl)-5-(3-carboxymethoxyphenyl)-2-(4-sulfophenyl)-2H-tetrazolium, an inner salt; MTS was added to the culture medium. After incubating the plate for 1 h in a CO2 incubator, absorbance at 490 nm was recorded with a 96-well plate reader.

[2] = system: native rat adipocytes; assay: Lipogenesis in native rat adipocytes; format: cell-based
Procedure: Adipocytes were isolated from epididymal fat pads dissected from freshly sacrificed male Long-Evans rats and incorporation of [6-^3H]-glucose into triglycerides in response to treatment with inositol glycans or insulin was measured as previously described (Chakraborty, N. and M. d'Alarcao, Bioorganic & Medicinal Chemistry 13 (2005) 6732-6741).

[3] = system: human normal cultured cells; assay: Proliferation of human normal cultured cells; format: cell-based; conditions: 1-100 μM, data not shown
Procedure: Human primary culture cells, dermal fibroblasts, epidermal keratinocytes and umbilical vein endothelial cells were purchased from Cell Applications (San Diego, Calif., USA) and cultured according to the manufacturer's instructions.
Cell proliferation assays were performed with the CellTiter 96 AQueous One Solution Cell Proliferation Assay kit according to the manufacturer's instructions (Promega, Madison, Wis., USA). Briefly, 5×10^3 cells/well in medium were placed onto 96-well plates. IGs were added to cellular cultures at final concentrations of 0, 1, 10, and 100 μM. Cultures were incubated for 3 days or 7 days and then added to 20 μL/well of CellTiter 96 AQueous One Solution Reagent, which contains a tetrazolium compound, 3-(4,5-dimethylthiazol-2-yl)-5-(3-carboxymethoxyphenyl)-2-(4-sulfophenyl)-2H-tetrazolium, an inner salt; MTS was added to the culture medium. After incubating the plate for 1 h in a CO2 incubator, absorbance at 490 nm was recorded with a 96-well plate reader.

[4] = system: human umbilical vein endothelial cells (HUVEC); assay: Cell death of human umbilical vein endothelial cells; format: cell-based; conditions: in 1 hour, with IG-1
[5] = system: 3T3-L1 adipocytes; assay: Glycogen synthesis in 3T3-L1 adipocytes; format: cell-based, mouse; conditions: 100 μM
Procedure: (§3) 3T3-L1 fibroblasts were maintained in Dulbecco's modified Eagle's medium (DMEM) with 25 mM glucose plus 10% fetal bovine serum (FBS). Following 2 days at confluence, differentiation was initiated by the addition of DMEM containing 10% FBS, 167 nM insulin, […] dexamethasone, and 0.5 mM isobutylmethylxanthine. Three days later, the medium was replaced with DMEM plus 10% FBS and 167 nM insulin. After 2 more days, the medium was switched to DMEM plus 10% fetal bovine serum. Adipocytes were used 6-14 days after completion of the differentiation protocol, when >90% of the cells expressed the adipocyte phenotype. Prior to experiments, cells were washed two times with DMEM medium containing 5 mM glucose, 0.2% bovine serum albumin, 25 mM Hepes (pH 7.4), 100 units/ml penicillin, 100 units/ml streptomycin and 0.29 mg/ml glutamine, and were incubated in the same medium for 2 h. Glycogen and lipid synthesis were measured in 24-well dishes. […] The lipids were then extracted overnight with 5 ml of Betafluor (National Diagnostics), and glucose incorporation into lipid was measured by scintillation counting. 400 μl of the cell suspension was added to 600 μl of 50% KOH, and glycogen was precipitated and radioactivity was counted by a liquid scintillation counter

[6] = system: 3T3-L1 adipocytes; assay: Lipogenesis in 3T3-L1 adipocytes; format: cell-based, mouse; conditions: 100 μM
Procedure: as §3

[7] = system: human hepatoma (HuH7); assay: Cell proliferation / cell death assay, HuH7; format: cell-based; conditions: HuH7, in 24 hours after treatment
Procedure: as §1, §2

[8] = system: human neuroblastoma (SH-SY5Y); assay: Cell proliferation / cell death assay, SH-SY5Y; format: cell-based; conditions: in 24 hours after treatment
Procedure: as §1, §2

[9] = system: human prostate cancer cells (PC3); assay: Cell proliferation / cell death assay, PC3; format: cell-based; conditions: PC3, in 24 hours after treatment
Procedure: as §1, §2

CCCCCCCCCCCCCCCC(=O)O[C@H]1[C@@H](O)[C@H](O)[C@@H](O)[C@H](O)[C@H]1O[C@H]1O[C@H](CO)[C@@H](O)[C@H](O)[C@H]1N [IG14, 2-Amino-2-deoxy-α-D-glucopyranosyl-(1→3)-2-palmitoyl-D-myo-inositol]
cell death [1]: induced cancer cell death
stimulation of lipogenesis ([2]; native rat adipocytes, 40 μM): little or no lipogenesis
proliferation of human normal cultured cells [3]: did not affect the proliferation

CCCCC/C=C\C/C=C\C/C=C\C/C=C\CCCC(=O)O[C@H](COCCCCCCCCCCCCCCCCCC)COP(=O)(O)O [AAPA2, 1-0-alkyl (18:0)-2-0-acyl-(20:4)-sn-glycerol-phosphate]
effect on rapid cell death of HUVEC induced by IG-1 [4]: inhibits this rapid cell death

CCCCCCCCCCCCCCCC(=O)OC1[C@H](O)C(O)C(O)[C@H](O)[C@@H]1O[C@H]1OC(CO)[C@@H](O)[C@H](O)C1N (stereo partly drawn) [IG13, 2-Amino-2-deoxy-α-D-glucopyranosyl-(1→6)-1-palmitoyl-D-myo-inositol]
cell death [1]: induced cancer cell death
stimulation of lipogenesis ([2]; native rat adipocytes, 40 μM): little or no lipogenesis
proliferation of human normal cultured cells [3]: did not affect the proliferation

CCCCCCCCCCCCCCCC(=O)O[C@@H]1C(O)C(O[C@H]2OC(CO)[C@@H](O)[C@H](O)C2N)[C@@H](O)[C@@H](O)C1O (stereo partly drawn) [IG15, 2-Amino-2-deoxy-α-D-glucopyranosyl-(1→3)-1-palmitoyl-D-myo-inositol]
cell death [1]: induced cancer cell death
stimulation of lipogenesis ([2]; native rat adipocytes, 40 μM): little or no lipogenesis
proliferation of human normal cultured cells [3]: did not affect the proliferation
glycogen synthesis [5]: stimulates
lipogenesis [6]: stimulates

CCCCCCCCCCCCCCCC(=O)O[C@@H]1C(O)C(O)[C@H](O)[C@H](O[C@H]2OC(CO)[C@@H](O)[C@H](O)C2N)C1OP(=O)(O)O (stereo partly drawn) [IG2, 2-Amino-2-deoxy-α-D-glucopyranosyl-(1→6)-2-palmitoyl-D-myo-inositol-1-phosphate]
cancer cell death [7]: induced cancer cell death
cancer cell death [8]: induced cancer cell death
EC50 ([2]; Adipocyte, rat isolated adipocytes, fit to receptor binding model, read-out: EC50 value for stimulation of lipogenesis): 2500 nM
Emax ([2]; Adipocyte, rat isolated adipocytes, stimulation of lipogenesis, read-out: Amax (maximal effect)): 37%
stimulation of lipogenesis ([2]; rat isolated adipocytes, concentration series): stimulated lipogenesis
cancer cell death [9]: induced cancer cell death
proliferation of human normal cultured cells [3]: no effect on the proliferation
